Reference: PubChem BioAssay (NCI)
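GI50: concentration for 50% inhibition of growth. Definition used: TGI = concentration required for complete inhibition of growth.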

How the values were obtained:
Test in all cases: NCI tumour cell line growth inhibition, 384-well format
EKVX NSCLC = system: EKVX NSCLC
HOP-62 NSCLC = system: HOP-62 NSCLC
NCI-H522 lung = system: NCI-H522 lung
NCI/ADR-RES ovarian = system: NCI/ADR-RES ovarian
OVCAR-8 ovarian = system: OVCAR-8 ovarian
HT29 colon = system: HT29 colon
HOP-92 NSCLC = system: HOP-92 NSCLC
IGROV1 ovarian = system: IGROV1 ovarian
OVCAR-4 ovarian = system: OVCAR-4 ovarian
SF-295 CNS = system: SF-295 CNS
SF-268 CNS = system: SF-268 CNS
RXF 393 renal = system: RXF 393 renal
HCT-116 colon = system: HCT-116 colon
MDA-MB-435 melanoma = system: MDA-MB-435 melanoma
CAKI-1 renal = system: CAKI-1 renal
HCC-2998 colon = system: HCC-2998 colon
MALME-3M melanoma = system: MALME-3M melanoma
SR leukemia = system: SR leukemia
MDA-MB-231 breast = system: MDA-MB-231 breast
OVCAR-3 ovarian = system: OVCAR-3 ovarian
MCF7 breast = system: MCF7 breast
NCI-H460 NSCLC = system: NCI-H460 NSCLC
UACC-62 melanoma = system: UACC-62 melanoma
SF-539 CNS = system: SF-539 CNS
BT-549 breast = system: BT-549 breast
OVCAR-5 ovarian = system: OVCAR-5 ovarian
ACHN renal = system: ACHN renal
SK-MEL-5 melanoma = system: SK-MEL-5 melanoma
U251 glioblastoma = system: U251 glioblastoma
NCI-H322M lung = system: NCI-H322M lung
A549 NSCLC = system: A549 NSCLC
TK-10 renal = system: TK-10 renal
T-47D breast = system: T-47D breast
SNB-19 CNS = system: SNB-19 CNS
LOX IMVI melanoma = system: LOX IMVI melanoma
COLO 205 colon = system: COLO 205 colon
M14 melanoma = system: M14 melanoma
HCT-15 colon = system: HCT-15 colon
KM12 colon = system: KM12 colon
RPMI-8226 leukemia = system: RPMI-8226 leukemia
MOLT-4 leukemia = system: MOLT-4 leukemia
SNB-75 CNS = system: SNB-75 CNS
NCI-H23 lung = system: NCI-H23 lung
SK-OV-3 ovarian = system: SK-OV-3 ovarian
DU-145 prostate = system: DU-145 prostate
HL-60(TB) leukemia = system: HL-60(TB) leukemia
MDA-MB-468 breast = system: MDA-MB-468 breast
UACC-257 melanoma = system: UACC-257 melanoma
SN12C renal = system: SN12C renal
NCI-H226 lung = system: NCI-H226 lung
PC-3 prostate = system: PC-3 prostate
SK-MEL-28 melanoma = system: SK-MEL-28 melanoma
A498 renal = system: A498 renal
HS 578T breast = system: HS 578T breast

COc1cccc2[nH]c3c4c(c5c(c3c12)C(=O)N(CN1CCN(C)CC1)C5=O)CCC4
GI50 (EKVX NSCLC): 15.4 µM | TGI (EKVX NSCLC): 29.1 µM | GI50 (HOP-62 NSCLC): 11.5 µM | TGI (HOP-62 NSCLC): 24 µM | GI50 (NCI-H522 lung): 7.53 µM | TGI (NCI-H522 lung): 21.5 µM | GI50 (NCI/ADR-RES ovarian): 8.24 µM | TGI (NCI/ADR-RES ovarian): 21 µM | GI50 (OVCAR-8 ovarian): 9.47 µM | TGI (OVCAR-8 ovarian): 23.1 µM | GI50 (HT29 colon): 13.2 µM | TGI (HT29 colon): 27.1 µM | GI50 (HOP-92 NSCLC): 17.3 µM | TGI (HOP-92 NSCLC): 31.3 µM | GI50 (IGROV1 ovarian): 12.5 µM | TGI (IGROV1 ovarian): 29.6 µM | GI50 (OVCAR-4 ovarian): 7.56 µM | TGI (OVCAR-4 ovarian): 19.5 µM | GI50 (SF-295 CNS): 13.9 µM | TGI (SF-295 CNS): 27.2 µM | GI50 (SF-268 CNS): 15.5 µM | TGI (SF-268 CNS): 29.7 µM | GI50 (RXF 393 renal): 14.2 µM | TGI (RXF 393 renal): 27.3 µM | GI50 (HCT-116 colon): 11.6 µM | TGI (HCT-116 colon): 24.4 µM | GI50 (MDA-MB-435 melanoma): 13.7 µM | TGI (MDA-MB-435 melanoma): 29.1 µM | GI50 (CAKI-1 renal): 10.9 µM | TGI (CAKI-1 renal): 23.2 µM | GI50 (HCC-2998 colon): 21 µM | TGI (HCC-2998 colon): 66.1 µM | GI50 (MALME-3M melanoma): 13.5 µM | TGI (MALME-3M melanoma): 26.5 µM | GI50 (SR leukemia): 1830 nM | TGI (SR leukemia): 4.8 µM | GI50 (MDA-MB-231 breast): 16.1 µM | TGI (MDA-MB-231 breast): 29.9 µM | GI50 (OVCAR-3 ovarian): 13.2 µM | TGI (OVCAR-3 ovarian): 26.7 µM | GI50 (MCF7 breast): 12.5 µM | TGI (MCF7 breast): 26.9 µM | GI50 (NCI-H460 NSCLC): 6.97 µM | TGI (NCI-H460 NSCLC): 19.8 µM | GI50 (UACC-62 melanoma): 12.5 µM | TGI (UACC-62 melanoma): 25.3 µM | GI50 (SF-539 CNS): 9.75 µM | TGI (SF-539 CNS): 21.8 µM | GI50 (BT-549 breast): 15.8 µM | TGI (BT-549 breast): 29.6 µM | GI50 (OVCAR-5 ovarian): 20.7 µM | TGI (OVCAR-5 ovarian): 48.7 µM | GI50 (ACHN renal): 14.9 µM | TGI (ACHN renal): 30.5 µM | GI50 (SK-MEL-5 melanoma): 3.44 µM | TGI (SK-MEL-5 melanoma): 14.3 µM | GI50 (U251 glioblastoma): 12.1 µM | TGI (U251 glioblastoma): 24.6 µM | GI50 (NCI-H322M lung): 14.4 µM | TGI (NCI-H322M lung): 27.8 µM | GI50 (A549 NSCLC): 12.5 µM | TGI (A549 NSCLC): 26.3 µM | GI50 (TK-10 renal): 10.7 µM | TGI (TK-10 renal): 22.7 µM | GI50 (T-47D breast): 12.3 µM | TGI (T-47D breast): 32 µM | GI50 (SNB-19 CNS): 12.3 µM | TGI (SNB-19 CNS): 24.8 µM | GI50 (LOX IMVI melanoma): 13.7 µM | TGI (LOX IMVI melanoma): 26.9 µM | GI50 (COLO 205 colon): 15.4 µM | TGI (COLO 205 colon): 48.5 µM | GI50 (M14 melanoma): 14.3 µM | TGI (M14 melanoma): 28.7 µM | GI50 (HCT-15 colon): 11.5 µM | TGI (HCT-15 colon): 24.8 µM | GI50 (KM12 colon): 15.8 µM | TGI (KM12 colon): 34.2 µM | GI50 (RPMI-8226 leukemia): 13.3 µM | TGI (RPMI-8226 leukemia): 26.2 µM | GI50 (MOLT-4 leukemia): 6.13 µM | TGI (MOLT-4 leukemia): 19.1 µM | GI50 (SNB-75 CNS): 13 µM | TGI (SNB-75 CNS): 25.9 µM | GI50 (NCI-H23 lung): 14 µM | TGI (NCI-H23 lung): 27.3 µM | GI50 (SK-OV-3 ovarian): 11.2 µM | TGI (SK-OV-3 ovarian): 23.6 µM | GI50 (DU-145 prostate): 14.4 µM | TGI (DU-145 prostate): 27.9 µM | GI50 (HL-60(TB) leukemia): 10.7 µM | TGI (HL-60(TB) leukemia): 22.7 µM | GI50 (MDA-MB-468 breast): 8.27 µM | TGI (MDA-MB-468 breast): 21.1 µM | GI50 (UACC-257 melanoma): 17.8 µM | TGI (UACC-257 melanoma): 33 µM | GI50 (SN12C renal): 12.5 µM | TGI (SN12C renal): 40.6 µM | GI50 (NCI-H226 lung): 15.9 µM | TGI (NCI-H226 lung): 33.2 µM | GI50 (PC-3 prostate): 11.5 µM | TGI (PC-3 prostate): 23.8 µM | GI50 (SK-MEL-28 melanoma): 14.5 µM | TGI (SK-MEL-28 melanoma): 28.3 µM | GI50 (A498 renal): 9.22 µM | TGI (A498 renal): 21.5 µM | GI50 (HS 578T breast): 15 µM | TGI (HS 578T breast): 29 µM
